Measurements taken from PMC11184554, “Nature-Inspired Gallinamides Are Potent Antischistosomal Agents: Inhibition of the Cathepsin B1 Protease Target and Binding Mode Analysis” (ACS Infectious Diseases, 2024).

What was measured:
[1] = test system: S. mansoni newly transformed schistosomula (NTS); assay: Phenotypic screen with newly transformed schistosomula (NTS); format: cell-based
Description: The same 19 gallinamides were screened for bioactivity against S. mansoni newly transformed schistosomula (NTS), the postinvasive parasite stage that feeds on host blood.[40] In this primary assay, the NTS were exposed to 1 and 10 μM compounds for 3 days, and the resulting phenotypic responses were graded from 0 through 4, i.e., the least to the most severe (Table 2 and Table S1). […] The effects were more pronounced after 72 h, and when the higher, 10 μM, compound concentration was used (Table S1). […] Also, compared to gallinamide A and its analogs, 3 has an additional N-terminal N-acetamide modification that further reduces bioactivity (Table 2).
Phenotypic screens employed S. mansoni newly transformed schistosomula (NTS) and adults and were carried out as described previously.[18]−[20],[42] NTS were prepared by mechanically transforming infective larvae (cercariae).[40],[42] NTS (200–300 parasites) were incubated in flat-bottomed 96-well plates in 200 μL of Basch Medium 169 containing 5% (v/v) FBS, 100 U mL^–1 penicillin and 100 μg mL^–1 streptomycin (complete Basch medium)[75] at 5% CO2 and 37 °C.[76],[77] Inhibitors were added at final concentrations of 1 and 10 μM, and changes in phenotypes were observed under an inverted microscope every 24 h for up to 72 h.
A constrained nomenclature of “descriptors”[39],[42] was used to record the multiple and dynamic changes in movement, shape, and translucence that the schistosome parasite is capable of (Table S1 for NTS and Table S3 for adults). These descriptors were then converted into an ordinal “severity score” system ranging from 0 (no effect) to 4 (maximum effect), which allows for the relative comparison of compound effects.

recombinant SmCB1 = assay: Kinetic inhibition assay with recombinant SmCB1 (k2nd); format: biochemical, S. mansoni
Description: Gallinamide A and a series of its 18 derivatives were evaluated in vitro as inhibitors of SmCB1 to explore the binding specificities of the subsites in the enzyme’s active site. The gallinamide A inhibitor scaffold can be defined by positions P4 through P1′ (Schechter and Berger nomenclature[37]), which were assigned according to the binding mode analysis (see the crystallographic section below). The substituents R4, R1, and R1′ introduced on the scaffold (Table 2) are numbered according to the respective positions P4, P1, and P1′. The compounds’ second-order rate constants (k2nd) were determined using a kinetic inhibition assay with recombinant SmCB1 and the substrate, Cbz–Phe–Arg–AMC.
Inhibition measurements were performed in duplicate in 96-well microplates (100 μL assay volume) at 37 °C. SmCB1 (40 pM) was added to a mixture of the fluorogenic substrate Cbz–Phe–Arg–AMC (25 μM) and an inhibitor (0–100 μM) in 0.1 M sodium acetate, pH 5.5, containing 2.5 mM dithiothreitol and 0.01% (w/v) BRIJ 35. Substrate hydrolysis was monitored in an Infinite M1000 microplate reader (Tecan) at excitation and emission wavelengths of 360 and 465 nm, respectively, for up to 150 min. An observed first-order rate constant, kobs, was calculated at each inhibitor concentration by fitting the progress curve to the equation P = vi/kobs(1 – exp(−kobst)) + d where P is the product formation, t is the reaction time, vi is the initial velocity, and d is the offset. […] The second-order rate constant, k2nd, (and SE value) was determined by fitting the linear equation kobs = (k2nd[I])/(1 + [S]/Km), where [S] is the substrate concentration, [I] is the inhibitor concentration, and KM is the Michaelis–Menten constant. The KM value determined for SmCB1 was 25 μM. […] To determine IC50 values, SmCB1 (40 pM) was preincubated with the inhibitor (0–100 μM) for 30 min under assay conditions as described above, followed by the addition of the fluorogenic substrate Cbz–Phe–Arg–AMC (20 μM). Substrate hydrolysis was monitored for 30 min in a microplate reader as described above. The IC50 values were determined by nonlinear regression using GraFit software (Erithacus Software).

In the case of CCC(C)C(C(=O)OC(CC(C)C)C(=O)NC(CC(C)C)C(=O)NC(C=CC(=O)N1C(=O)C=C(OC)C1Cc1ccccc1)Cc1ccccc1)N(C)C (centres unmarked) [compound 18], the schistosomula severity score ([1]; 1 μM compound, 24 h, scale 0 (no effect) to 4 (most severe)) is reported as 0, the schistosomula severity score ([1]; 1 μM compound, 48 h, scale 0 to 4) is reported as 0 and the schistosomula severity score ([1]; 1 μM compound, 72 h, scale 0 to 4) is reported as 0. The schistosomula severity score ([1]; 10 µM compound, 24 h, scale 0 to 4) was 1, the schistosomula severity score ([1]; 10 µM compound, 48 h, scale 0 to 4) was 4 and the schistosomula severity score ([1]; 10 µM compound, 72 h, scale 0 to 4) was 4. For the same compound, the “decrease in inhibition vs 14” value (recombinant SmCB1; Phe in R1 changed from S to R configuration) was 3.4 fold and the “SmCB1 inhibition k2nd” value (recombinant SmCB1; second-order rate constant (kinact/Ki), substrate Cbz–Phe–Arg–AMC, pH 5.5, 37 °C, mean ± SE) was 16.0 ± 0.2 M^–1·s^–1.
